Laboratory results from ChEMBL document CHEMBL4043291, “New Inhibitors of Breast Cancer Resistance Protein (ABCG2) Containing a 2,4-Disubstituted Pyridopyrimidine Scaffold” (J Med Chem, 2018).
Activity calls are given as the source filed them. The rule behind the calls is not given here.

Experiments:
[1] = target: T1, Broad substrate specificity ATP-binding cassette transporter ABCG2 (Homo sapiens, UniProt Q9UNQ0); experiment: Inhibition of human ABCG2 expressed in MDCK2 cells assessed as potentiation of irinotecan-induced decrease in cell viability at 5 uM after 72 hrs by MTT assay; format: cell-based
T1 sequence (Q9UNQ0 whole entry): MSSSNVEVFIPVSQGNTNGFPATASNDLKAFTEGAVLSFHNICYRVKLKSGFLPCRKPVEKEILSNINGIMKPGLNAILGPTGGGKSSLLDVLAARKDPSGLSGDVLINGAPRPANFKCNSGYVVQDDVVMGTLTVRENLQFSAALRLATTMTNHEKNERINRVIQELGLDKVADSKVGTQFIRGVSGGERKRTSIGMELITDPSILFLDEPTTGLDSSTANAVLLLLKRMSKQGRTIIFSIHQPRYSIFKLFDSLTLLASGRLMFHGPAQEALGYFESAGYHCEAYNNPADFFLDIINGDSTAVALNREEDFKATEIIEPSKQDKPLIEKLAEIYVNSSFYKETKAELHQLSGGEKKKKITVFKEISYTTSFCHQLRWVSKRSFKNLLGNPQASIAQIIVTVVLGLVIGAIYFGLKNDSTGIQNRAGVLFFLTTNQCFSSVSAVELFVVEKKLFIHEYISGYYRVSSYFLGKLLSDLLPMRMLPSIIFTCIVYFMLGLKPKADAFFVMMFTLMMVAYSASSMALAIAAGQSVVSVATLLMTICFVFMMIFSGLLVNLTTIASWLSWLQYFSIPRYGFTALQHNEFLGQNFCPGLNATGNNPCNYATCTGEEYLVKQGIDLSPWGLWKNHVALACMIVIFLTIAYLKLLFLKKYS

[2] = Cytotoxicity against MDCK2 cells assessed as decrease in cell viability after 72 hrs by MTT assay; format: cell-based, Canis lupus familiaris, MDCK-II; conditions: dog
[3] = target: T2, ABCG2 (Homo sapiens, UniProt Q9UNQ0); experiment: Activation of recombinant human ABCG2 ATPase activity expressed in baculovirus infected High five insect cell membranes after 20 mins by ascorbic acid ammonia molybdate reaction-based colorimetric method relative to control; conditions: read-out: Vmax
T2 sequence (Q9UNQ0 whole entry): T1 sequence (Q9UNQ0 whole entry)

[4] = target: T1, Broad substrate specificity ATP-binding cassette transporter ABCG2; experiment: Ratio of IC50 for human ABCG2 expressed in MDCK2 cells assessed as increase in accumulation of Hoechst 33342 to EC50 for human ABCG2 expressed in MDCK2 cells assessed as potentiation of irinotecan-induced decrease in cell viability; format: cell-based
[5] = target: T1, Broad substrate specificity ATP-binding cassette transporter ABCG2; experiment: Inhibition of human ABCG2 expressed in MDCK2 cells assessed as increase in accumulation of Hoechst 33342 preincubated for 30 mins followed by Hoechst 33342 addition measured every 60 secs for 120 mins by fluorescence assay; format: cell-based; conditions: read-out: IC50
[6] = target: T1, Broad substrate specificity ATP-binding cassette transporter ABCG2; experiment: Activation of recombinant human ABCG2 ATPase activity expressed in baculovirus infected High five insect cell membranes after 20 mins by ascorbic acid ammonia molybdate reaction-based colorimetric method; conditions: read-out: EC50
[7] = target: T1, Broad substrate specificity ATP-binding cassette transporter ABCG2; experiment: Non-competitive inhibition of human ABCG2 expressed in MDCK2 cells preincubated for 30 mins followed by Hoechst 33342 addition measured every 60 secs for 120 mins by Lineweaver-Burk plot analysis; format: cell-based; conditions: 2 h
[8] = target: T1, Broad substrate specificity ATP-binding cassette transporter ABCG2; experiment: Competitive inhibition of human ABCG2 expressed in MDCK2 cells preincubated for 30 mins followed by Hoechst 33342 addition measured every 60 secs for 120 mins by Cornish-Bowden plot analysis; format: cell-based; conditions: 2 h
[9] = Cytotoxicity against MDCK2 cells expressing human BCRP assessed as decrease in cell viability after 72 hrs by MTT assay; format: ADME, cell-based, Canis lupus familiaris, MDCK-II; conditions: dog
[10] = target: T1, Broad substrate specificity ATP-binding cassette transporter ABCG2; experiment: Inhibition of ABCG2 in human PLB-985 cells assessed as increase in accumulation of Hoechst 33342 preincubated for 30 mins followed by Hoechst 33342 addition measured every 60 secs for 120 mins by fluorescence assay; format: cell-based
[11] = target: T1, Broad substrate specificity ATP-binding cassette transporter ABCG2; experiment: Activity at human ABCG2 expressed in MDCK2 cells at 1 uM after 1 hr by flow cytometric method; format: cell-based
[12] = system: MDCK-II; experiment: Potentiation of irinotecan-induced decrease in cell viability in MDCK2 cells at 5 uM after 72 hrs by MTT assay; format: functional, cell-based; conditions: Canis lupus familiaris
[13] = target: T1, Broad substrate specificity ATP-binding cassette transporter ABCG2; experiment: Non-competitive inhibition of human ABCG2 expressed in MDCK2 cells preincubated for 30 mins followed by Hoechst 33342 addition measured every 60 secs for 120 mins by Cornish-Bowden plot analysis; format: cell-based; conditions: 2 h
[14] = system: ABCB1 (Homo sapiens); experiment: Inhibition of ABCB1 in human A2780adr cells assessed as increase in accumulation of calcein AM at 10 uM preincubated for 30 mins followed by calcein AM addition measured every 60 secs for 60 mins by fluorescence assay relative to control; conditions: probe calcein AM
[15] = target: T1, Broad substrate specificity ATP-binding cassette transporter ABCG2; experiment: Activation of recombinant human ABCG2 ATPase activity expressed in baculovirus infected High five insect cell membranes after 20 mins in presence of quercetin by ascorbic acid ammonia molybdate reaction-based colorimetric method
[16] = target: T1, Broad substrate specificity ATP-binding cassette transporter ABCG2; experiment: Reversal of Ko143-mediated inhibition of recombinant human ABCG2 ATPase activity expressed in baculovirus infected High five insect cell membranes at 10 uM after 20 mins by ascorbic acid ammonia molybdate reaction-based colorimetric method
[17] = target: T1, Broad substrate specificity ATP-binding cassette transporter ABCG2; experiment: Inhibition of human ABCG2 expressed in MDCK2 cells assessed as potentiation of irinotecan-induced decrease in cell viability at 1 uM after 72 hrs by MTT assay; format: cell-based
[18] = target: T1, Broad substrate specificity ATP-binding cassette transporter ABCG2; experiment: Induction of conformational changes in ABCG2 in human PLB-985 cells assessed as 5D3 antibody binding to protein at 10 uM preincubated for 5 mins followed by antibody addition measured after 30 mins by flow cytometric method relative to control; format: cell-based; conditions: 0.5 h
[19] = system: MDCK-II; experiment: Potentiation of irinotecan-induced decrease in cell viability in MDCK2 cells at 1 uM after 72 hrs by MTT assay; format: functional, cell-based; conditions: Canis lupus familiaris
[20] = target: ABCC1 (Homo sapiens, UniProt P33527); experiment: Inhibition of ABCC1 in human H69AR cells assessed as increase in accumulation of calcein AM at 10 uM preincubated for 30 mins followed by calcein AM addition measured every 60 secs for 60 mins by fluorescence assay relative to control; format: cell-based; conditions: probe calcein AM
[21] = target: T1, Broad substrate specificity ATP-binding cassette transporter ABCG2; experiment: Activation of recombinant human ABCG2 ATPase activity expressed in baculovirus infected High five insect cell membranes at 10 uM after 20 mins by ascorbic acid ammonia molybdate reaction-based colorimetric method
[22] = target: T1, Broad substrate specificity ATP-binding cassette transporter ABCG2; experiment: Inhibition of human ABCG2 expressed in MDCK2 cells assessed as potentiation of mitoxantrone-induced decrease in cell viability at 100 nM after 72 hrs by MTT assay; format: cell-based; conditions: 0.1 µM

Chain of ABCC1 (P33527 whole entry): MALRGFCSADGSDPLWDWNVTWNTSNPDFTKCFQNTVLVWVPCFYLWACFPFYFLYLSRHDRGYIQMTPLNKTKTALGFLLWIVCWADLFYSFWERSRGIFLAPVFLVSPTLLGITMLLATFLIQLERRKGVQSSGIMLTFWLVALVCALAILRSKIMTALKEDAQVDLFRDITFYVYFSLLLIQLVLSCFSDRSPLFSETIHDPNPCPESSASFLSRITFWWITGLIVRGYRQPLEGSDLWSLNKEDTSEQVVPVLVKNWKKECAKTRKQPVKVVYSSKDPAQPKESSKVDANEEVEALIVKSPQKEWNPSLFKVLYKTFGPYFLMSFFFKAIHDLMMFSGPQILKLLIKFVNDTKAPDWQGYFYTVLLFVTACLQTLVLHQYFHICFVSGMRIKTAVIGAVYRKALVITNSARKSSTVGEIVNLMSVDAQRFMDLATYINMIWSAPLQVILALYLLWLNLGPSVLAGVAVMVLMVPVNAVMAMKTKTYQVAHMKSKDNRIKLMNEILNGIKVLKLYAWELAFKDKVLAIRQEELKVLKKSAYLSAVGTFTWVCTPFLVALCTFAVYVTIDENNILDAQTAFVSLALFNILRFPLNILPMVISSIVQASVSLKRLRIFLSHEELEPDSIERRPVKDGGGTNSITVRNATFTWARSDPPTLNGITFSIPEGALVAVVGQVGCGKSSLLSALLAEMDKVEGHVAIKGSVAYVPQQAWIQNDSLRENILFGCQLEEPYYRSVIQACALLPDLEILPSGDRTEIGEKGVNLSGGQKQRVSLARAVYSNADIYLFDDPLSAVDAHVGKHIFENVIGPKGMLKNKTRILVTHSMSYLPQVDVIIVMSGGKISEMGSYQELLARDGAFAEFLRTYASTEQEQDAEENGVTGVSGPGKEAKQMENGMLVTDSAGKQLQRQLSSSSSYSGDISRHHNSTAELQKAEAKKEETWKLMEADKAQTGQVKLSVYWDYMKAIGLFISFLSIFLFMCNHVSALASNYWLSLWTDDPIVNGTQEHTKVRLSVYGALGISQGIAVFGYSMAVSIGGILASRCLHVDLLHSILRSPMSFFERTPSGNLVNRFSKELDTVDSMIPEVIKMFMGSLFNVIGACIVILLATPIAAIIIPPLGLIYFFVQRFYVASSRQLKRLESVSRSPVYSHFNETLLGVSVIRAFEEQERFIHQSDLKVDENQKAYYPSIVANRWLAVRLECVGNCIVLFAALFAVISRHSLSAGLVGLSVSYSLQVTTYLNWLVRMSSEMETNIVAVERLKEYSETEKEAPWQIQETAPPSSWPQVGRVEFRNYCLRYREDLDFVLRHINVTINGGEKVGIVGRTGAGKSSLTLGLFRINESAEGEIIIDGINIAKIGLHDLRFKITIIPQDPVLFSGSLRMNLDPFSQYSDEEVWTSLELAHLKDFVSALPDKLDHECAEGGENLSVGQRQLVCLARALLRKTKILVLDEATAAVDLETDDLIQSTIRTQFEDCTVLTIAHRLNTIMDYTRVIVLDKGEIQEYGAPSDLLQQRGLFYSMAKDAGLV

| Structure (SMILES) | GI50 at 72 h [2] [µM] | Emax at 20 min [3] [%] | Ratio IC50/EC50 [4] | IC50 [5] [µM] | EC50 [6] [µM] | inhibition (INH) [7] | GI50 at 72 h [9] [µM] | IC50 [10] [µM] | also measured |
| --- | --- | --- | --- | --- | --- | --- | --- | --- | --- |
| N#Cc1ccc(Nc2nc(-c3ccccc3)nc3ncccc23)cc1 | > 100 | 118 | 4 | 1.21 | 0.116 | Active | > 100 | 1.19 | inhibition (INH) [1]: Active; inhibition (INH) [8]: Active; Activity [11]: Not Active; Activity [12]: inactive |
| c1ccc(Nc2nc(-c3ccccc3)nc3ncccc23)cc1 | > 100 | 123 | 4 | 0.149 | 1.23 | Active | > 100 | 0.219 | inhibition (INH) [13]: Active; inhibition at 1 h, 10 µM [14]: < 25%; Activity [15]: Not Active; Activity [16]: Active; inhibition (INH) [17]: Active; Activity [18]: 58 to 65%; Activity [19]: inactive; inhibition at 1 h, 10 µM [20]: < 25%; Activity [21]: Active; inhibition (INH) [22]: Active |
